Target: Pituitary adenylate cyclase-activating polypeptide type I receptor (Homo sapiens) (UniProt P41586)
Test: Antagonist activity at human PAC1 expressed in mouse […] 3T3 cells assessed as inhibition of glucagon-induced cAMP accumulation preincubated for 30 mins prior to glucagon challenge measured after 30 mins post glucagon challenge by liquid scintillation counter

Chain of Pituitary adenylate cyclase-activating polypeptide type I receptor (Homo sapiens) (P41586 whole entry, looked up): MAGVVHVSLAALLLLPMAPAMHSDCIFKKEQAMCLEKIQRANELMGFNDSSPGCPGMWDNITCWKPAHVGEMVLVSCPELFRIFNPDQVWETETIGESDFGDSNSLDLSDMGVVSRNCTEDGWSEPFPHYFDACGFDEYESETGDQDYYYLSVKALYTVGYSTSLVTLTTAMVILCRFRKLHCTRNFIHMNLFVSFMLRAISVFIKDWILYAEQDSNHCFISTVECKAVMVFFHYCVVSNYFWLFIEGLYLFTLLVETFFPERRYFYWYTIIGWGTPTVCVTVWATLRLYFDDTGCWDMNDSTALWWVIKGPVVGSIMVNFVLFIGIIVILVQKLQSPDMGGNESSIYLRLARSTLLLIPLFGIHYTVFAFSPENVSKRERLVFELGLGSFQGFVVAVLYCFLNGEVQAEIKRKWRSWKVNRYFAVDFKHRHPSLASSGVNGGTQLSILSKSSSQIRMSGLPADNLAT

IC50: 9.2 µM
Compound: COc1ccc2cc(-c3cc(-c4cc(Cl)cc(Cl)c4)nn3[C@@H](C)c3ccc(C(=O)NCCC(=O)O)cc3)ccc2c1
